Measured values taken from ChEMBL document CHEMBL1144156 (Bioorg Med Chem Lett, 2008).

Legend:
Progesterone receptor [1] = target: T1, Progesterone receptor (Homo sapiens, UniProt P06401); assay: Antagonist activity at progesterone receptor assessed as progesterone-induced alkaline phosphatase activity in human T47D cells; type: functional, cell-based
T1 sequence (P06401 whole entry): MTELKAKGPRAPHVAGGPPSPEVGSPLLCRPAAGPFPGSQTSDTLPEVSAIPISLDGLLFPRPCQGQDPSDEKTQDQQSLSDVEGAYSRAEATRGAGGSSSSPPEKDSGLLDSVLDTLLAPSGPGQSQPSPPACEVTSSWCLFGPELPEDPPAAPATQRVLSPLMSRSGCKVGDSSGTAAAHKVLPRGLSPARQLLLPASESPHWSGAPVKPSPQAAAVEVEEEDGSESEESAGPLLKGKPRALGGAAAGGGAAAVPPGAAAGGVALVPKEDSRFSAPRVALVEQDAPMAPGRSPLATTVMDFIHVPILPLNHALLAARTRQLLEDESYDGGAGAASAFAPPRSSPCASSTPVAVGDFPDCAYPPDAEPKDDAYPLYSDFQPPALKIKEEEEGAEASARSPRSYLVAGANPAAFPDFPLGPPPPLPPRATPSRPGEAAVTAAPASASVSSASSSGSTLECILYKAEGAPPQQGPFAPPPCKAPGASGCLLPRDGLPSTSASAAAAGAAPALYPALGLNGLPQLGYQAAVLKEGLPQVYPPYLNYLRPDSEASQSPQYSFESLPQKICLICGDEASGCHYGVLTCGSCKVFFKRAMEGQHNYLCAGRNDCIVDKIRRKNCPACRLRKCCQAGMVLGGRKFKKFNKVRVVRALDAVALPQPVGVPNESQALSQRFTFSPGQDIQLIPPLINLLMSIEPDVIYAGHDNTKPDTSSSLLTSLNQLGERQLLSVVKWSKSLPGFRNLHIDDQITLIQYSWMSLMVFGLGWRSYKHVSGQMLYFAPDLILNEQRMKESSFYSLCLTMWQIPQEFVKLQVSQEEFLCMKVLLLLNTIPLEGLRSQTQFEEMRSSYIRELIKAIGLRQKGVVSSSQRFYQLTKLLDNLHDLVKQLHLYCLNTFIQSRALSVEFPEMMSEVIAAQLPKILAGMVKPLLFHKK

Progesterone receptor [2] = target: T1, Progesterone receptor; assay: Activity at progesterone receptor assessed as alkaline phosphatase activity in human T47D cells; type: cell-based
Estrogen receptor = target: T2, Estrogen receptor (Homo sapiens, UniProt P03372); assay: Antagonist activity at estrogen receptor by Gal4-DNA binding domain-hormone receptor LBD one-hybrid assay
T2 sequence (P03372 whole entry): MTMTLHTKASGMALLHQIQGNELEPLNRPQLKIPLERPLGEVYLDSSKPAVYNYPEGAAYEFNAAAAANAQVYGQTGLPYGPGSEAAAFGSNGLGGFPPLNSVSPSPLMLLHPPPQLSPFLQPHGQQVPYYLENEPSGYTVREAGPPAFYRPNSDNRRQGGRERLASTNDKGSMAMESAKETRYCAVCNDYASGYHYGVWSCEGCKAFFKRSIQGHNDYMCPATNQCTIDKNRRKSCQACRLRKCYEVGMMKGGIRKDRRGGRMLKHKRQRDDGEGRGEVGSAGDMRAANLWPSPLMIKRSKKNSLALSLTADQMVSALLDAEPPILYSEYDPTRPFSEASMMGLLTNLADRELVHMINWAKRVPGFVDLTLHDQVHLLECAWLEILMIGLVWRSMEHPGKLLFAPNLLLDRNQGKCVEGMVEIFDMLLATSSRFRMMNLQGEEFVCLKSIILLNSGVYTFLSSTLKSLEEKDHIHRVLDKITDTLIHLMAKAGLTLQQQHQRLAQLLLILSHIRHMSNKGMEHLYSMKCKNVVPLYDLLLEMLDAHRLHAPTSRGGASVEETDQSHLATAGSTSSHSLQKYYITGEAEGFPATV

Glucocorticoid receptor = target: T3, Glucocorticoid receptor (Homo sapiens, UniProt P04150); assay: Antagonist activity at glucocorticoid receptor by Gal4-DNA binding domain-hormone receptor LBD one-hybrid assay
T3 sequence (P04150 whole entry): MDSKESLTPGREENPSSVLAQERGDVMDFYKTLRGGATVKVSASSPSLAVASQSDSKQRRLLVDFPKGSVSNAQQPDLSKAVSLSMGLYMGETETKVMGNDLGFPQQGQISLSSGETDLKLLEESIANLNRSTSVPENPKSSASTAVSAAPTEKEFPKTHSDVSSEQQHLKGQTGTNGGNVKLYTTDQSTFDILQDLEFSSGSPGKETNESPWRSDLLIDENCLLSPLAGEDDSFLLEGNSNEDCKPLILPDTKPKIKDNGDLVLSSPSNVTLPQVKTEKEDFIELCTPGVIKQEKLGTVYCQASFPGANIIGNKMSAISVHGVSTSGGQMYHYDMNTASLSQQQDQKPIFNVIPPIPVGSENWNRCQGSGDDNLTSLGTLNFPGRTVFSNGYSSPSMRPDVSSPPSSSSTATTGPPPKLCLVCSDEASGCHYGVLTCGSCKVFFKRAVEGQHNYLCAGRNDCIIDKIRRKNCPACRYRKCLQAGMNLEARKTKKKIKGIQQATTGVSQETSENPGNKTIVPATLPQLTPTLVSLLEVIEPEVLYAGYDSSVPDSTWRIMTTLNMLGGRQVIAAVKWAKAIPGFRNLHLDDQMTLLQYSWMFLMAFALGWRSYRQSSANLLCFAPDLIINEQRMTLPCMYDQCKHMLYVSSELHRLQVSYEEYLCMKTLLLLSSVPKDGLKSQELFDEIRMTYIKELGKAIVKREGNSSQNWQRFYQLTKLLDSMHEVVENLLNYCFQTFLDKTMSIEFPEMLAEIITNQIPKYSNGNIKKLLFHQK

Androgen receptor = target: T4, Androgen receptor (Homo sapiens, UniProt P10275); assay: Antagonist activity at androgen receptor by Gal4-DNA binding domain-hormone receptor LBD one-hybrid assay
T4 sequence (P10275 whole entry): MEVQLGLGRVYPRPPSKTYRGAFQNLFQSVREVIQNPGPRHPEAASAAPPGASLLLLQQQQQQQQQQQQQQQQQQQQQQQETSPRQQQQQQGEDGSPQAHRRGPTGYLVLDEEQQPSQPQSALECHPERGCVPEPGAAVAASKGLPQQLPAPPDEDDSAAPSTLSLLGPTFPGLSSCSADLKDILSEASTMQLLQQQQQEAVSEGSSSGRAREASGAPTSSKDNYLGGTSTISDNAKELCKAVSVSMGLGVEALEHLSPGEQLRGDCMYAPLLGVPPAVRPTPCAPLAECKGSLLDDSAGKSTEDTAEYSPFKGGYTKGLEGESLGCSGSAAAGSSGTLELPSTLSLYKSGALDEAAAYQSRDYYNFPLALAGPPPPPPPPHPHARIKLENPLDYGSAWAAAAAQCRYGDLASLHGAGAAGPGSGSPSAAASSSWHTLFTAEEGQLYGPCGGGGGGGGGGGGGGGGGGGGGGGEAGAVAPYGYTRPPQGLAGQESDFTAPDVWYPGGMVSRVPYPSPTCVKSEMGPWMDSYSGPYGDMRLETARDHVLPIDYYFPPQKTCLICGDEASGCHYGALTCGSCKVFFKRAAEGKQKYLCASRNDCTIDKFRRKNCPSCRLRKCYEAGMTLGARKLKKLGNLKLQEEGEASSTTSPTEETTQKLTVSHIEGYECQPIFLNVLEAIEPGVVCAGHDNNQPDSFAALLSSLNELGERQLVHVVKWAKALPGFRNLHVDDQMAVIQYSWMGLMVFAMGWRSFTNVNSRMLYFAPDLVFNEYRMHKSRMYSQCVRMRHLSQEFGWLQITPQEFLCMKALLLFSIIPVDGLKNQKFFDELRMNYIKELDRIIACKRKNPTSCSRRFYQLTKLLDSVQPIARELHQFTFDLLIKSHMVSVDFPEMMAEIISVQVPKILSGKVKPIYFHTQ

Progesterone receptor [3] = target: T1, Progesterone receptor; assay: Displacement of [3H]progesterone from progesterone receptor in human T47D cells; type: cell-based
[4] = target: T5, Mineralocorticoid receptor (Homo sapiens, UniProt P08235); assay: Antagonist activity at mineralocorticoid receptor by Gal4-DNA binding domain-hormone receptor LBD one-hybrid assay
T5 sequence (P08235 whole entry): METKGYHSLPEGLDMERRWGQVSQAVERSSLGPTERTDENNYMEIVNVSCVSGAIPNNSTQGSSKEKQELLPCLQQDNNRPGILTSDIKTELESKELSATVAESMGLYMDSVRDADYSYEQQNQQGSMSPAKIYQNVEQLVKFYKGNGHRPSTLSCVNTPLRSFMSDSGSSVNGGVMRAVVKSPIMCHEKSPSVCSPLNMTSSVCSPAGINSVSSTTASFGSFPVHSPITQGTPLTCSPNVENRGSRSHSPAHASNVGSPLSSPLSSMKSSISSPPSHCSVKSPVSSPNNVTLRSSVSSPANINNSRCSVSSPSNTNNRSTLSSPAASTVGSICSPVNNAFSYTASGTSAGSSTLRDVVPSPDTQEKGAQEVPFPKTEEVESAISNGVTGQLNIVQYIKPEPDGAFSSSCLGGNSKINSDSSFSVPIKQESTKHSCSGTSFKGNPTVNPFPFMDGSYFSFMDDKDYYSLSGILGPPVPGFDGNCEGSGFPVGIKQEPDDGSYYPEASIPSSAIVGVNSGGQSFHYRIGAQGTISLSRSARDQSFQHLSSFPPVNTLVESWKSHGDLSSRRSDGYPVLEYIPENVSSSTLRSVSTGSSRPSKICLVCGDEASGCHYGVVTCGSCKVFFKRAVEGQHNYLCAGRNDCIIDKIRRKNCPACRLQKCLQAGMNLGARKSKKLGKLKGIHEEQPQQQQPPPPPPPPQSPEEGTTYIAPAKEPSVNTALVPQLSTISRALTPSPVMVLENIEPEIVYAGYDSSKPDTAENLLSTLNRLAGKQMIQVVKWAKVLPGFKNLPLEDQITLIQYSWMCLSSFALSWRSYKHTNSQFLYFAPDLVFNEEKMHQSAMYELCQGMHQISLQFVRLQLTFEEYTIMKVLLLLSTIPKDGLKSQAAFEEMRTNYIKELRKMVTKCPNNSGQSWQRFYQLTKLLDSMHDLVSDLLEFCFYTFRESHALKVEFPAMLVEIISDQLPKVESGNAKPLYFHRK

| IC50 (Progesterone receptor [1]) | EC50 (Progesterone receptor [2]) | IC50 (Progesterone receptor [3]) | Compound | further results |
| --- | --- | --- | --- | --- |
| – | 0.0011 µM | – | CC1(c2ccsc2)OCC(=O)Nc2ccc(-c3ccc(C#N)[nH]3)cc21 (stereo not given) | – |
| 0.0143 µM | – | 0.036 µM | Cn1c(C#N)ccc1-c1ccc2c(c1)C(c1ccccc1)(c1ccccc1)OCC(=O)N2 | – |
| – | 0.138 µM | – | CC1OCC(=O)Nc2ccc(-c3ccc(C#N)n3C)cc21 (stereo not given) | – |
| – | 0.0033 µM | 0.0107 µM | CC1(C)OCC(=O)Nc2ccc(-c3ccc(C#N)[nH]3)cc21 | – |
| 0.175 µM | – | – | Cn1c(C#N)ccc1-c1ccc2c(c1)C(c1cccc(Cl)c1)(c1cccc(Cl)c1)OCC(=O)N2 | – |
| – | 0.0033 µM | – | Cn1c(C#N)ccc1-c1ccc2c(c1)C(C)(C)OCC(=O)N2 | – |
| 0.12 µM | – | – | CCC1(c2cccs2)OCC(=O)N(C)c2ccc(-c3ccc(C#N)n3C)cc21 (stereo not given) | – |
| 0.0365 µM | – | – | CC(C)C1(c2cccs2)OCC(=O)Nc2ccc(-c3ccc(C#N)n3C)cc21 (stereo not given) | – |
| – | 0.0375 µM | – | CN1C(=O)COC(C)(c2cccs2)c2cc(-c3ccc(C#N)n3C)ccc21 (stereo not given) | – |
| – | – | 0.075 µM | CCC1(c2cccs2)OCC(=O)Nc2ccc(-c3ccc(C#N)n3C)cc21 (stereo not given) | – |
| – | 0.0305 µM | – | N#Cc1ccc(-c2ccc3c(c2)C2(CCCCC2)OCC(=O)N3)[nH]1 | – |
| – | 0.0005 µM | – | C[C@@]1(c2ccsc2)OCC(=O)Nc2ccc(-c3ccc(C#N)[nH]3)cc21 | – |

Further lines, the compound ahead of its results:

| Compound | IC50 (Progesterone receptor [1]) | EC50 (Progesterone receptor [2]) | IC50 (Progesterone receptor [3]) | further results |
| --- | --- | --- | --- | --- |
| CN1C(=O)COC(c2ccccc2)(c2ccccc2)c2cc(-c3ccc(C#N)n3C)ccc21 | 0.5 µM | – | – | – |
| Cn1c(C#N)ccc1-c1ccc2c(c1)C(C)(c1ccsc1)OCC(=O)N2 (stereo not given) | – | 0.0008 µM | 0.0034 µM | IC50 (Estrogen receptor): > 10 µM; IC50 (Glucocorticoid receptor): 0.127 µM; IC50 (Androgen receptor): 0.325 µM; IC50 [4]: 0.44 µM |
| C[C@]1(c2ccsc2)OCC(=O)Nc2ccc(-c3ccc(C#N)[nH]3)cc21 | – | 0.11 µM | – | – |
| CC1(c2cccs2)OCC(=O)Nc2ccc(-c3ccc(C#N)[nH]3)cc21 (stereo not given) | – | 0.0007 µM | 0.0038 µM | – |
| CC1OCC(=O)Nc2ccc(-c3ccc(C#N)[nH]3)cc21 (stereo not given) | – | 0.246 µM | – | – |
| Cn1c(C#N)ccc1-c1ccc2c(c1)C(c1cccs1)(c1cccs1)OCC(=O)N2 | – | – | 0.06 µM | IC50 (Estrogen receptor): > 10 µM; IC50 (Glucocorticoid receptor): > 3 µM; IC50 (Androgen receptor): 0.775 µM; IC50 [4]: 2.3 µM |
| Cn1c(C#N)ccc1-c1ccc2c(c1)C(c1ccco1)(c1ccco1)OCC(=O)N2 | 0.0066 µM | – | 0.0284 µM | IC50 (Estrogen receptor): > 10 µM; IC50 (Glucocorticoid receptor): > 3 µM; IC50 (Androgen receptor): 0.74 µM; IC50 [4]: 2.8 µM |
| CCCC1(c2cccs2)OCC(=O)Nc2ccc(-c3ccc(C#N)n3C)cc21 (stereo not given) | 0.0566 µM | – | – | – |
| Cn1c(C#N)ccc1-c1ccc2c(c1)C(C)(c1cccs1)OCC(=O)N2 (stereo not given) | – | 0.0008 µM | 0.0024 µM | – |
| Cn1c(C#N)ccc1-c1ccc2c(c1)C(c1ccc(Cl)s1)(c1ccc(Cl)s1)OCC(=O)N2 | 0.197 µM | – | – | – |
| Cn1c(C#N)ccc1-c1ccc2c(c1)C(C)(c1ccco1)OCC(=O)N2 (stereo not given) | – | 0.0004 µM | – | IC50 (Estrogen receptor): > 10 µM; IC50 (Glucocorticoid receptor): 0.12 µM; IC50 (Androgen receptor): 0.215 µM; IC50 [4]: 0.155 µM |
